For one test, the system named is U87MG cells. The test is described as follows: MTT cell viability assay, U87MG cells. The format is cell-based, human. Conditions: for effect on U87MG cell viability (in words): U87MG, 1, 10 and 50 μM; for effect of co-administration on U87MG cell viability (in words): 10 μM σR ligand plus 10 μM HO-1 inhibitor, compared with σR ligand alone. (Tetrazolium dyes change colour on reduction, which living cells bring about.)

The next test has as its system HO-2. Further details: method as in PMID 29783634, PMID 23867390, PMID 32056044, PMID 32168943, PMID 32222619. Conditions: Figure 1, previously demonstrated; cited from earlier work.
For test [1], the target named is T1, σ2R (Rattus norvegicus, UniProt Q5U3Y7).
T1 construct: from tissue; host or cells: liver membranes of Sprague-Dawley rats (animals from ENVIGO RMS S.R.L.)
T1 sequence (Q5U3Y7 1-176): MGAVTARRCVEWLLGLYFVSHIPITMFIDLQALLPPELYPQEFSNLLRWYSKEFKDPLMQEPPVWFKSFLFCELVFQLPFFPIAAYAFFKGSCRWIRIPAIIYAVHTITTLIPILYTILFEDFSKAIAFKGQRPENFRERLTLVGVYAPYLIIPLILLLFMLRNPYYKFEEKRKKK
Conditions: Table S1; ref [4, 5] of the supplement; cited from earlier work.

The next test deals with T2, σ1R (Cavia porcellus, UniProt Q60492).
T2 construct: The thawed membrane preparation of guinea pig brain cortex was incubated with increasing concentrations of test compounds; from tissue; host or cells: brain cortex membranes of male Dunkin-Hartley guinea pigs (animals from ENVIGO RMS S.R.L.)
T2 sequence (Q60492 whole entry): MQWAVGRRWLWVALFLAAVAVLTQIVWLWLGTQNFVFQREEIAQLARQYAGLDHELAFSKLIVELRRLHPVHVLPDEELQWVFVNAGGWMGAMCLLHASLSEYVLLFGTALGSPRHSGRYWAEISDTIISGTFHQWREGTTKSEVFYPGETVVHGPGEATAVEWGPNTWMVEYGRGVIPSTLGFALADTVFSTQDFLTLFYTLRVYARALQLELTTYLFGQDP
The test is described as follows: σ1R radioligand binding assay, [3H](+)-pentazocine, guinea pig brain cortex membranes. Conditions: for inhibition at 10 µM: read-out: σ1R % of inhibition at 10 μM.

For test [2], the target named is T1, σ2R. Kind of test: σ2R radioligand binding assay, [3H]DTG, rat liver membranes.
Description: (§1) All new synthesized HO-1/σ hybrids 1–4 were evaluated for affinity at both the σ1R and the σ2R, through radioligand binding assay.
(§2) Brain and liver homogenates for σ1R and σ2R binding assays were prepared from male Dunkin–Hartley guinea pigs and Sprague–Dawley rats, respectively, (ENVIGO RMS S.R.L., Udine, Italy) as previously reported [54]. In vitro σ1R ligand binding assays were carried out in Tris buffer (50 mM, pH 7.4) for 150 min at 37 °C. […] Bound and free radioligand were separated by fast filtration under reduced pressure using a Millipore filter apparatus through Whatman GF 6 glass fiber filters, which were presoaked in a 0.5% poly(ethyleneimine) water solution. Each filter paper was rinsed three times with ice-cold Tris buffer (50 mM, pH 7.4), dried at rt, and incubated overnight with scintillation fluid into pony vials. The bound radioactivity has been determined using a liquid scintillation counter (Beckman LS 6500) [55]. In vitro σ2R ligand binding assays were carried out in Tris buffer (50 mM, pH 8.0) for 120 min at rt. […] Bound and free radioligand were separated by fast filtration under reduced pressure using a Millipore filter apparatus through Whatman GF 6 glass fiber filters, which were presoaked in a 0.5% poly(ethyleneimine) water solution. Each filter paper was rinsed three times with ice-cold Tris buffer (10 mM, pH 8), dried at rt, and incubated overnight with scintillation fluid into pony vials. The bound radioactivity was determined using a liquid scintillation counter (Beckman LS 6500) [56]. The Ki-values were calculated with the program GraphPad Prism® 7.0 (GraphPad Software, San Diego, CA, USA). The Ki-values are given as mean value ± SD from at least two independent experiments performed in duplicate.
A further test deals with T3, HO-1 (Rattus norvegicus, UniProt P06762).
T3 construct: selected in order to use the most native (i.e., closest to in vivo) forms of HO-1; from tissue; host or cells: spleen microsomal fraction of male Sprague-Dawley rats
T3 sequence (P06762 1-289): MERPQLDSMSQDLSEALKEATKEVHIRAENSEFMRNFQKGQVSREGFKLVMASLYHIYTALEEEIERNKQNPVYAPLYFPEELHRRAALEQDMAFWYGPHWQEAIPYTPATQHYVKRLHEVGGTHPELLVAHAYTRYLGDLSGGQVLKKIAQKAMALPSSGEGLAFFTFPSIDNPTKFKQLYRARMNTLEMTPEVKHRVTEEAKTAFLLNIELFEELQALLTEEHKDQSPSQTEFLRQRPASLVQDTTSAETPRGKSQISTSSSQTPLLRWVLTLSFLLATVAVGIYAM
The test is described as follows: HO-1 inhibition, bilirubin formation in rat spleen microsomal fraction. Conditions: Table S1. It counts as biochemical. The protocol: The new HO-1/σRs hybrids 1–4 were tested to evaluate their HO-1 inhibitory activity. The enzyme was obtained from the microsomal fractions of rat spleen. Determination of HO-1 activity was performed by measuring the bilirubin formation using the difference in absorbance at 464–530 nm, as reported in the experimental section. Compounds LS/0, LS4/28, LS6/42 and azalanstat were used as reference substances. We focused our attention on HO-1, since only this inducible isoform is involved in tumorigenesis and in tumor progression.
Microsomal fractions obtained from rat spleen were used as sources of HO-1. Microsomal preparations obtained by differential centrifugation, were selected in order to use the most native (i.e., closest to in vivo) forms of HO-1. The experiments reported in the present paper complied with current Italian law and met the guidelines of the Institutional Animal Care and Use Committee of Ministry of Health (Directorate General for Animal Health and Veterinary Medicines) (Italy). The experiments were performed in male Sprague–Dawley albino rats (150 g body weight and age 45 d). They had free access to water and were kept at room temperature with a natural photo-period (12 h light, 12 h dark cycle). For measuring HO-1 activities, each rat was sacrificed and their spleens were excised and weighed. A homogenate (15%, w/v) of spleens pooled from four rats was prepared in ice-cold HO-homogenizing buffer (50 mM Tris buffer, pH 7.4, containing 0.25 M sucrose) using a Potter–Elvehjem homogenizing system with a Teflon pestle. The microsomal fraction of rat spleen homogenate was obtained by centrifugation at 10,000× g for 20 min at 4 °C, followed by centrifugation of the supernatant at 100,000× g for 60 min at 4 °C. The 100,000g pellet (microsomes) was resuspended in an 100 mM potassium phosphate buffer, pH 7.8, containing 2 mM MgCl2 with a Potter–Elvehjem homogenizing system. The rat spleen microsomal fractions were divided into equal aliquots, placed into microcentrifuge tubes, and stored at −80 °C for up to 2 months.
Biliverdin reductase was obtained from liver cytosol. Rat liver was perfused through the hepatic portal vein with cold 0.9% NaCl, then it was cut and flushed with 2 × 20 mL of ice-cold PBS to remove all of the blood. Liver tissue was homogenized in 3 volumes of solution containing 1.15% KCl w/v and Tris buffer 20 mM, pH 7.8 on ice. Homogenates were centrifuged at 10,000× g, for 20 min at 4 °C. Supernatant was decanted and centrifuged at 100,000× g for 1 h at 4 °C to sediment the microsomes. The 100,000× g supernatant was saved and then stored in small amounts at −80 °C after its protein concentration was measured.
The HO-1 activities were determined by measuring the bilirubin formation using the difference in absorbance at 464–530 nm. Reaction mixtures (500 µL) contained 20 mM Tris–HCl, pH 7.4, (1 mg/mL) microsomal extract, 0.5–2 mg/mL biliverdin reductase, 1 mM NADPH, 2 mM glucose 6-phosphate (G6P), 1 U G6P dehydrogenase, 25 μM hemin, and 10 µL of DMSO (or the same volume of DMSO solution of test compounds to a final concentration of 100, 10, and 1 µM). Samples were incubated for 60 min at 37 °C in a circulating water bath in the dark. Reactions were stopped by adding the same volume of chloroform. After recovering the chloroform phase, the amount of bilirubin formed was measured with a double-beam spectrophotometer as OD464–530 nm (extinction coefficient, 40 mM/cm^−1 for bilirubin). […]

The next test concerns DU145 cells. Kind of test: MTT cell viability assay, DU145 cells. It counts as cell-based, human. Conditions: DU145, single compound 10 μM, 72 h. An excerpt: In some types of human prostate and brain cancers, both HO-1 and σRs are overexpressed, influencing cancer cell proliferation. Consequently, σR ligands and HO-1 inhibitors may have anticancer activity. Literature data highlight the potential antiproliferative activity of various σ1R ligands in highly diffusive glioblastoma and prostate cancer cells, likely by interfering with the progression of cell cycle and decreasing the migration of cancer cells. Likewise, HO-1 inhibition hinders cancer progression, mainly by decreasing CO-mediated angiogenesis and disrupting the antioxidant HO-1 activity. […] Cytotoxicity of all new and previous synthesized compounds were evaluated in vitro via MTT assay. The cell viability of DU145 and U87-MG cells was assessed after 72 h of continuous treatment with all tested compounds, at the concentrations of 1, 10, and 50 μM. […]
The cytotoxicity of HO-1 inhibitors and σR ligands previous synthesized compounds as well as novel HO-1/σR hybrids compounds were evaluated. The effect on cell viability was assessed by performing MTT assay. […] Finally, dimethyl-sulfoxide (DMSO) was used to dissolve formazan salts and absorbance was measured at 450 nm in a microplate reader (Biotek Synergy-HT). […]

Read-outs that look alike come from different tables or passages of the source. Where only a bound is given, the exact number is not on record here.

Description for U87MG cells: In particular, we used the human glioblastoma cell line U87MG (ATCCC number #HTB-14) and the prostate cancer cell line DU145 (ATCC HTB-81). These cell lines were obtained from the American Type Culture Collection (ATCC, Rockville, Md., USA). Cells were cultured in Dulbecco’s modified Eagle’s medium (DMEM) supplemented with 10% of heat-inactivated fetal bovine serum (FBS), 100 U/mL penicillin and 100-μg/mL streptomycin (Sigma-Aldrich, Steinheim, Germany) and incubated at 37 °C in a humidified atmosphere with 5% CO2.
The cytotoxicity of HO-1 inhibitors and σR ligands previous synthesized compounds as well as novel HO-1/σR hybrids compounds were evaluated. The effect on cell viability was assessed by performing MTT assay. Cells were seeded into 96-well plates at a density of 7.0 × 10^3 cells/well in 100 µL of culture medium. The day after, cells were treated with each molecule at three different concentrations (1 µM, 10 µM and 50 µM) for 72 h. Following treatments, 0.5 mg/mL of 3-[4,5-dimethylthiazol-2-yl]-2,5-diphenyltetrazolium bromide (MTT) (Sigma-Aldrich) was added to each well and incubated for 4 h at 37 °C. Finally, dimethyl-sulfoxide (DMSO) was used to dissolve formazan salts and absorbance was measured at 450 nm in a microplate reader (Biotek Synergy-HT). Six replicate wells were used for each group.
Description for σ1R: as §1, §2

A word on the IC50: it is the midpoint of a concentration-inhibition curve. Turning to `OC(Cn1ccnc1)c1cccc(-c2ccccc2)c1` (stereo not shown) [LS4/28], the “effect on U87MG cell viability (in words)” value in the test with U87MG cells (72 h, MTT) is given as “did not affect U87MG cell viability”. Besides, in the test on HO-2, the IC50 was greater than 100 µM.

Take `Brc1cccc(OCCCCn2ccnc2)c1` [LS/0]: in the test with U87MG cells (72 h, MTT), the “effect on U87MG cell viability (in words)” value is “significantly reduce cell viability only at 50 μM”. In the test with HO-2, the IC50 is 2.2 ± 0.2 µM.

As a reminder, the Ki is the equilibrium dissociation constant of an inhibitor or competing ligand from its target. Turning to `COc1ccc(CN2CCN(C(=O)CCC3CCCCC3)CC2)cc1` [SI1/13], the Ki at σ2R [1] was 1.42 µM. Further, the “effect of co-administration on U87MG cell viability (in words)” value with U87MG cells (U87MG) is listed as “increased by the addition of all the tested HO-1 inhibitors”. Besides, the “effect on U87MG cell viability (in words)” value with U87MG cells (72 h, MTT) is given as “high efficacy in downregulation of cell viability”.

Regarding `OC(Cn1ccnc1)c1ccc(CCc2ccc(Br)cc2)cc1` (stereo not shown) [LS6/42], the “reduction of cellular viability” value in the test on U87MG cells (U87MG, single compound 10 μM, 72 h, MTT) is on record as “about 50%”. In addition, in the test on HO-2, the IC50 was greater than 100 µM.

As for `COc1ccc(CN2CCN(C(=O)CCc3ccccc3)CC2)cc1` [RFB/13], in the test with U87MG cells (U87MG), the “effect of co-administration on U87MG cell viability (in words)” value is given as “significantly reduced for compound RFB/13 only when combined with LS4/28 or LS6/42”. Besides, the “effect on U87MG cell viability (in words)” value in the test with U87MG cells (72 h, MTT) is “significantly reduce cell viability only at 50 μM”.

The inhibition is how much of the control response was suppressed. On to `O=C(CCCc1ccc(OCCCCn2ccnc2)cc1)N1CCN(Cc2ccccc2)CC1` [Compound 4, 4-(4-(4-(1H-imidazol-1-yl)butoxy)phenyl)-1-(4-benzylpiperazin-1-yl)butan-1-one], for which, at σ1R, the Ki is greater than 10 µM and the inhibition at 10 µM was 55%. Moreover, the “effect on U87MG cell viability (in words)” value with U87MG cells (72 h, MTT) is “reduced U87MG cell viability at all concentrations, especially at 50 μM”. The same compound had a Ki on σ2R [2] of 4.62 µM. For the same compound, at HO-1, it took 87.7 ± 1.3 µM to reach half-maximal inhibition (IC50) and the “IC50 HO-1” value was “the most potent compound among the series”.

Consider `O=C(CCCN1CCC(O)(c2ccc(Cl)cc2)CC1)c1ccc(F)cc1` [Haloperidol, haloperidol], for which the “effect on U87MG cell viability (in words)” value with U87MG cells (72 h, MTT) is recorded as “high efficacy in downregulation of cell viability”. The “reduction of cell viability” value with DU145 cells is given as “about 50%”.

Regarding `O=C(c1ccc(OCCCCn2ccnc2)cc1)N1CCN(Cc2ccccc2)CC1` [Compound 1, (4-(4-(1H-imidazol-1-yl)butoxy)phenyl)(4-benzylpiperazin-1-yl)methanone], the Ki at σ1R and on σ2R [2] was greater than 10 µM each time. Also, the inhibition at 10 µM on σ1R was 90%; at σ2R [2], 54%. For the same compound, the “effect on U87MG cell viability (in words)” value with U87MG cells (72 h, MTT) is “reduced U87MG cell viability at all concentrations, especially at 50 μM”. Moreover, inhibition against HO-1 was half-maximal at 230 ± 5.1 µM (IC50).

Turning to `O=C(Cc1ccc(OCCCCn2ccnc2)cc1)N1CCN(Cc2ccccc2)CC1` [Compound 2, 2-(4-(4-(1H-imidazol-1-yl)butoxy)phenyl)-1-(4-benzylpiperazin-1-yl)ethan-1-one], at σ1R, the Ki is greater than 10 µM and the inhibition at 10 µM is 73%. In the test with U87MG cells (72 h, MTT), the “effect on U87MG cell viability (in words)” value was “reduced U87MG cell viability at all concentrations, especially at 50 μM”. At σ2R [2], this compound yielded an inhibition constant (Ki) greater than 10 µM and an inhibition at 10 µM of 67%. Also, the IC50 on HO-1 amounted to 216 ± 3.6 µM.

As for `O=C(CCc1ccc(OCCCCn2ccnc2)cc1)N1CCN(Cc2ccccc2)CC1` [Compound 3, 3-(4-(4-(1H-imidazol-1-yl)butoxy)phenyl)-1-(4-benzylpiperazin-1-yl)propan-1-one], at σ1R, the Ki was greater than 10 µM and the inhibition at 10 µM stood at 78%. Also, in the test on U87MG cells (72 h, MTT), the “effect on U87MG cell viability (in words)” value is “less efficacy than the control at 1 μM”. On σ2R [2], this compound gave a Ki greater than 10 µM and an inhibition at 10 µM of 66%. In addition, at HO-1, the IC50 came out at 162 ± 1.8 µM.

The values above are taken from PMC8270315, “Combination of Heme Oxygenase-1 Inhibition and Sigma Receptor Modulation for Anticancer Activity” (Molecules, 2021).
